Data taken from the supplement of paper PMC10307832.

Legend:
Assay in all cases: relative viability (nuclei count vs DMSO), 5 days (fraction); higher = more cells survive
Alisertib = compound: COc1cc(Nc2ncc3c(n2)-c2ccc(Cl)cc2C(c2c(F)cccc2OC)=NC3)ccc1C(=O)O [Alisertib]
Method in brief: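 Viability here means nuclei in treated wells divided by nuclei in vehicle wells, reported as the median across plates. Only plates with control CV below 25% and at least one doubling passed. Lung cancer cell lines in 1536-well plates were exposed to five √10-spaced library-drug doses for 5 days and counted from 4× Hoechst images in MetaXpress.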

Alisertib + Bortezomib = compound: COc1cc(Nc2ncc3c(n2)-c2ccc(Cl)cc2C(c2c(F)cccc2OC)=NC3)ccc1C(=O)O [Alisertib] + CC(C)C[C@H](NC(=O)[C@H](Cc1ccccc1)NC(=O)c1cnccn1)B(O)O [Bortezomib] (partner 0.002 µM)
Method in brief: (§1)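 Lung cancer cell lines in 1536-well plates were dosed by pin tool the day after seeding, either with one drug alone or with a fixed anchor-drug dose plus five library-drug doses (not always all listed) in √10 steps. After 5 days, cells were fixed and their nuclei stained in one step (final 0.05% Triton X-100, 1% formaldehyde, 1 ug/ml Hoechst), then counted on 4× images. Relative viability is the nuclei count in treated wells divided by that in vehicle wells. Values are medians of duplicate plates.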

Alisertib + Navitoclax = compound: COc1cc(Nc2ncc3c(n2)-c2ccc(Cl)cc2C(c2c(F)cccc2OC)=NC3)ccc1C(=O)O [Alisertib] + CC1(C)CCC(c2ccc(Cl)cc2)=C(CN2CCN(c3ccc(C(=O)NS(=O)(=O)c4ccc(N[C@H](CCN5CCOCC5)CSc5ccccc5)c(S(=O)(=O)C(F)(F)F)c4)cc3)CC2)C1 [Navitoclax] (partner 0.5 µM)
Method in brief: as §1

Alisertib + Foretinib = compound: COc1cc(Nc2ncc3c(n2)-c2ccc(Cl)cc2C(c2c(F)cccc2OC)=NC3)ccc1C(=O)O [Alisertib] + COc1cc2c(Oc3ccc(NC(=O)C4(C(=O)Nc5ccc(F)cc5)CC4)cc3F)ccnc2cc1OCCCN1CCOCC1 [Foretinib] (partner 0.25 µM)
Method in brief: as §1

Alisertib + Lapatinib = compound: COc1cc(Nc2ncc3c(n2)-c2ccc(Cl)cc2C(c2c(F)cccc2OC)=NC3)ccc1C(=O)O [Alisertib] + CS(=O)(=O)CCNCc1ccc(-c2ccc3ncnc(Nc4ccc(OCc5cccc(F)c5)c(Cl)c4)c3c2)o1 [Lapatinib] (partner 2 µM)
Method in brief: as §1

Alisertib + Pictilisib = compound: COc1cc(Nc2ncc3c(n2)-c2ccc(Cl)cc2C(c2c(F)cccc2OC)=NC3)ccc1C(=O)O [Alisertib] + CS(=O)(=O)N1CCN(Cc2cc3nc(-c4cccc5[nH]ncc45)nc(N4CCOCC4)c3s2)CC1 [Pictilisib] (partner 1 µM)
Method in brief: as §1

Alisertib + Crizotinib = compound: COc1cc(Nc2ncc3c(n2)-c2ccc(Cl)cc2C(c2c(F)cccc2OC)=NC3)ccc1C(=O)O [Alisertib] + C[C@@H](Oc1cc(-c2cnn(C3CCNCC3)c2)cnc1N)c1c(Cl)ccc(F)c1Cl [Crizotinib] (partner 1 µM)
Method in brief: as §1

Alisertib + Linsitinib = compound: COc1cc(Nc2ncc3c(n2)-c2ccc(Cl)cc2C(c2c(F)cccc2OC)=NC3)ccc1C(=O)O [Alisertib] + C[C@]1(O)C[C@@H](c2nc(-c3ccc4ccc(-c5ccccc5)nc4c3)c3c(N)nccn32)C1 [Linsitinib] (partner 1 µM)
Method in brief: as §1

Alisertib + Alpelisib = compound: COc1cc(Nc2ncc3c(n2)-c2ccc(Cl)cc2C(c2c(F)cccc2OC)=NC3)ccc1C(=O)O [Alisertib] + Cc1nc(NC(=O)N2CCC[C@H]2C(N)=O)sc1-c1ccnc(C(C)(C)C(F)(F)F)c1 [Alpelisib] (partner 2 µM)
Method in brief: as §1

Alisertib + Olaparib = compound: COc1cc(Nc2ncc3c(n2)-c2ccc(Cl)cc2C(c2c(F)cccc2OC)=NC3)ccc1C(=O)O [Alisertib] + O=C(c1cc(Cc2n[nH]c(=O)c3ccccc23)ccc1F)N1CCN(C(=O)C2CC2)CC1 [Olaparib] (partner 8 µM)
Method in brief: as §1

Alisertib + Luminespib = compound: COc1cc(Nc2ncc3c(n2)-c2ccc(Cl)cc2C(c2c(F)cccc2OC)=NC3)ccc1C(=O)O [Alisertib] + CCNC(=O)c1noc(-c2cc(C(C)C)c(O)cc2O)c1-c1ccc(CN2CCOCC2)cc1 [Luminespib] (partner 0.01 µM)
Method in brief: as §1

Alisertib + OSI-027 = compound: COc1cc(Nc2ncc3c(n2)-c2ccc(Cl)cc2C(c2c(F)cccc2OC)=NC3)ccc1C(=O)O [Alisertib] + COc1cccc2cc(-c3nc([C@H]4CC[C@H](C(=O)O)CC4)n4ncnc(N)c34)[nH]c12 [OSI-027] (partner 0.5 µM)
Method in brief: as §1

Alisertib + Tozasertib = compound: COc1cc(Nc2ncc3c(n2)-c2ccc(Cl)cc2C(c2c(F)cccc2OC)=NC3)ccc1C(=O)O [Alisertib] + Cc1cc(Nc2cc(N3CCN(C)CC3)nc(Sc3ccc(NC(=O)C4CC4)cc3)n2)n[nH]1 [Tozasertib] (partner 0.1 µM)
Method in brief: as §1

Alisertib + Dasatinib = compound: COc1cc(Nc2ncc3c(n2)-c2ccc(Cl)cc2C(c2c(F)cccc2OC)=NC3)ccc1C(=O)O [Alisertib] + Cc1nc(Nc2ncc(C(=O)Nc3c(C)cccc3Cl)s2)cc(N2CCN(CCO)CC2)n1 [Dasatinib] (partner 0.075 µM)
Method in brief: as §1

Alisertib + Phenformin = compound: COc1cc(Nc2ncc3c(n2)-c2ccc(Cl)cc2C(c2c(F)cccc2OC)=NC3)ccc1C(=O)O [Alisertib] + N=C(N)NC(=N)NCCc1ccccc1 [Phenformin] (partner 250 µM)
Method in brief: as §1

## Calu-6
Alisertib; 0.005 µM
  relative viability: 0.863
Alisertib; 0.01581 µM
  relative viability: 0.669
Alisertib; 0.05 µM
  relative viability: 0.319
Alisertib; 0.1581 µM
  relative viability: 0.196
Alisertib; 0.5 µM
  relative viability: 0.186
Alisertib + Bortezomib; first compound 0.005 µM
  relative viability: 0.89
Alisertib + Bortezomib; first compound 0.01581 µM
  relative viability: 0.57
Alisertib + Bortezomib; first compound 0.05 µM
  relative viability: 0.316
Alisertib + Bortezomib; first compound 0.1581 µM
  relative viability: 0.189
Alisertib + Bortezomib; first compound 0.5 µM
  relative viability: 0.195
Alisertib + Navitoclax; first compound 0.005 µM
  relative viability: 0.713
Alisertib + Navitoclax; first compound 0.01581 µM
  relative viability: 0.377
Alisertib + Navitoclax; first compound 0.05 µM
  relative viability: 0.13
Alisertib + Navitoclax; first compound 0.1581 µM
  relative viability: 0.0974
Alisertib + Navitoclax; first compound 0.5 µM
  relative viability: 0.107
Alisertib + Foretinib; first compound 0.005 µM
  relative viability: 0.855
Alisertib + Foretinib; first compound 0.01581 µM
  relative viability: 0.599
Alisertib + Foretinib; first compound 0.05 µM
  relative viability: 0.228
Alisertib + Foretinib; first compound 0.1581 µM
  relative viability: 0.155
Alisertib + Foretinib; first compound 0.5 µM
  relative viability: 0.137
Alisertib + Lapatinib; first compound 0.005 µM
  relative viability: 0.925
Alisertib + Lapatinib; first compound 0.01581 µM
  relative viability: 0.541
Alisertib + Lapatinib; first compound 0.05 µM
  relative viability: 0.382
Alisertib + Lapatinib; first compound 0.1581 µM
  relative viability: 0.204
Alisertib + Lapatinib; first compound 0.5 µM
  relative viability: 0.216
Alisertib + Pictilisib; first compound 0.005 µM
  relative viability: 0.726
Alisertib + Pictilisib; first compound 0.01581 µM
  relative viability: 0.379
Alisertib + Pictilisib; first compound 0.05 µM
  relative viability: 0.164
Alisertib + Pictilisib; first compound 0.1581 µM
  relative viability: 0.171
Alisertib + Pictilisib; first compound 0.5 µM
  relative viability: 0.153
Alisertib + Crizotinib; first compound 0.005 µM
  relative viability: 0.697
Alisertib + Crizotinib; first compound 0.01581 µM
  relative viability: 0.334
Alisertib + Crizotinib; first compound 0.05 µM
  relative viability: 0.204
Alisertib + Crizotinib; first compound 0.1581 µM
  relative viability: 0.227
Alisertib + Crizotinib; first compound 0.5 µM
  relative viability: 0.198
Alisertib + Linsitinib; first compound 0.005 µM
  relative viability: 0.733
Alisertib + Linsitinib; first compound 0.01581 µM
  relative viability: 0.763
Alisertib + Linsitinib; first compound 0.05 µM
  relative viability: 0.295
Alisertib + Linsitinib; first compound 0.1581 µM
  relative viability: 0.129
Alisertib + Linsitinib; first compound 0.5 µM
  relative viability: 0.162
Alisertib + Alpelisib; first compound 0.005 µM
  relative viability: 0.771
Alisertib + Alpelisib; first compound 0.01581 µM
  relative viability: 0.566
Alisertib + Alpelisib; first compound 0.05 µM
  relative viability: 0.249
Alisertib + Alpelisib; first compound 0.1581 µM
  relative viability: 0.188
Alisertib + Alpelisib; first compound 0.5 µM
  relative viability: 0.191
Alisertib + Olaparib; first compound 0.005 µM
  relative viability: 0.545
Alisertib + Olaparib; first compound 0.01581 µM
  relative viability: 0.385
Alisertib + Olaparib; first compound 0.05 µM
  relative viability: 0.237
Alisertib + Olaparib; first compound 0.1581 µM
  relative viability: 0.207
Alisertib + Olaparib; first compound 0.5 µM
  relative viability: 0.13

## NCI-H1623
Alisertib; 0.005 µM
  relative viability: 0.841
Alisertib; 0.01581 µM
  relative viability: 0.856
Alisertib; 0.05 µM
  relative viability: 0.656
Alisertib; 0.1581 µM
  relative viability: 0.4
Alisertib; 0.5 µM
  relative viability: 0.395
Alisertib + Luminespib; first compound 0.005 µM
  relative viability: 0.499
Alisertib + Luminespib; first compound 0.01581 µM
  relative viability: 0.496
Alisertib + Luminespib; first compound 0.05 µM
  relative viability: 0.385
Alisertib + Luminespib; first compound 0.1581 µM
  relative viability: 0.33
Alisertib + Luminespib; first compound 0.5 µM
  relative viability: 0.379
Alisertib + Foretinib; first compound 0.005 µM
  relative viability: 0.884
Alisertib + Foretinib; first compound 0.01581 µM
  relative viability: 0.848
Alisertib + Foretinib; first compound 0.05 µM
  relative viability: 0.569
Alisertib + Foretinib; first compound 0.1581 µM
  relative viability: 0.425
Alisertib + Foretinib; first compound 0.5 µM
  relative viability: 0.424
Alisertib + OSI-027; first compound 0.005 µM
  relative viability: 0.439
Alisertib + OSI-027; first compound 0.01581 µM
  relative viability: 0.439
Alisertib + OSI-027; first compound 0.05 µM
  relative viability: 0.398
Alisertib + OSI-027; first compound 0.1581 µM
  relative viability: 0.295
Alisertib + OSI-027; first compound 0.5 µM
  relative viability: 0.309
Alisertib + Tozasertib; first compound 0.005 µM
  relative viability: 0.37
Alisertib + Tozasertib; first compound 0.01581 µM
  relative viability: 0.398
Alisertib + Tozasertib; first compound 0.05 µM
  relative viability: 0.424
Alisertib + Tozasertib; first compound 0.1581 µM
  relative viability: 0.386
Alisertib + Tozasertib; first compound 0.5 µM
  relative viability: 0.425
Alisertib + Dasatinib; first compound 0.005 µM
  relative viability: 0.587
Alisertib + Dasatinib; first compound 0.01581 µM
  relative viability: 0.647
Alisertib + Dasatinib; first compound 0.05 µM
  relative viability: 0.573
Alisertib + Dasatinib; first compound 0.1581 µM
  relative viability: 0.344
Alisertib + Dasatinib; first compound 0.5 µM
  relative viability: 0.337
Alisertib + Phenformin; first compound 0.005 µM
  relative viability: 0.619
Alisertib + Phenformin; first compound 0.01581 µM
  relative viability: 0.592
Alisertib + Phenformin; first compound 0.05 µM
  relative viability: 0.501
Alisertib + Phenformin; first compound 0.1581 µM
  relative viability: 0.382
Alisertib + Phenformin; first compound 0.5 µM
  relative viability: 0.337
